Measured values published in patent US9409905B2, “Antibacterial compounds and methods for use” (PTC THERAPEUTICS, INC., priority 2011, dated 2016).
≈ marks a conversion by molar mass, not a printed value.

How the values were obtained:
E. coli LZ3111 = test: Antibacterial activity, MIC, quinolone resistant strain (Table 2); type: cell-based; settings: Escherichia coli, LZ3111, read-out: MIC LZ3111
Outline: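 Growth inhibition assessed by serial drug dilution in broth; endpoint was absence of macroscopically visible growth, reported as MIC, μg/mL.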

[1] = system: Escherichia coli (E. coli) BAS849; test: Antibacterial activity, microbroth dilution MIC (Table 1); type: cell-based; settings: microbroth dilution, super sensitive Gram-negative E. coli BAS849, read-out: MIC, BAS849
Outline: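 Using broth microdilution, MIC endpoints (μg/mL) mark where visible growth no longer appears; the panel spans sensitive and control Gram-negative strains plus a Gram-positive strain.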

[2] = system: Staphylococcus aureus (S. aureus) 29213; test: as above; type: cell-based; settings: microbroth dilution, Gram-positive S. aureus 29213, read-out: MIC, 29213
Outline: (§1)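 Read-out: visual absence of growth. The lowest concentration meeting this gives the MIC, expressed in μg/mL, with microbroth dilution as the method.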

E. coli 25922 = test: as above; type: cell-based, Escherichia coli; settings: Escherichia coli; microbroth dilution; control Gram-negative E. coli 25922 strain; read-out: MIC, 25922
Outline: as §1

| SMILES | MIC (E. coli LZ3111) | MIC [1] | MIC [2] | MIC (E. coli 25922) |
| --- | --- | --- | --- | --- |
| CCc1cc(C(=O)O)c(=O)[nH]c1-c1ccc2c(c1)cc(CNC(C)(C)c1ccccc1)n2C [Cpd 115, 5-ethyl-6-(1-methyl-2-((2-phenylpropan-2-ylamino)methyl)-1H-indol-5-yl)-2-oxo-1,2-dihydropyridine-3-carboxylic acid] | 12.5 to 150 µg/mL (≈ 28.2 to 338 µM) | < 1 µg/mL | 1 to 3.5 µg/mL (≈ 2.25 to 7.89 µM) | < 1 µg/mL |
| CCc1cc(C(=O)O)c(=O)[nH]c1-c1ccc2c(c1)cc(CN[C@H](C)c1ccccc1)n2C [Cpd 116, (R)-5-ethyl-6-(1-methyl-2-((1-phenylethylamino)methyl)-1H-indol-5-yl)-2-oxo-1,2-dihydropyridine-3-carboxylic acid] | 12.5 to 150 µg/mL (≈ 29.1 to 349 µM) | < 1 µg/mL | 1 to 3.5 µg/mL (≈ 2.33 to 8.15 µM) | < 1 µg/mL |
| CCc1cc(C(=O)O)c(=O)[nH]c1-c1ccc2c(c1)cc(CN[C@@H](C)c1ccccc1)n2C [Cpd 117, (S)-5-ethyl-6-(1-methyl-2-((1-phenylethylamino)methyl)-1H-indol-5-yl)-2-oxo-1,2-dihydropyridine-3-carboxylic acid] | 12.5 to 150 µg/mL (≈ 29.1 to 349 µM) | < 1 µg/mL | 12.5 to 150 µg/mL (≈ 29.1 to 349 µM) | < 1 µg/mL |
| CCc1cc(C(=O)O)c(=O)[nH]c1-c1ccc2c(c1)cc(CN[C@H](CC)c1ccccc1)n2C [Cpd 118, (R)-5-ethyl-6-(1-methyl-2-((1-phenylpropylamino)methyl)-1H-indol-5-yl)-2-oxo-1,2-dihydropyridine-3-carboxylic acid] | 12.5 to 150 µg/mL (≈ 28.2 to 338 µM) | < 1 µg/mL | 1 to 3.5 µg/mL (≈ 2.25 to 7.89 µM) | 1 to 3.5 µg/mL (≈ 2.25 to 7.89 µM) |
| CCc1cc(C(=O)O)c(=O)[nH]c1-c1ccc2c(c1)cc(CN[C@@H](CC)c1ccccc1)n2C [Cpd 119, (S)-5-ethyl-6-(1-methyl-2-((1-phenylpropylamino)methyl)-1H-indol-5-yl)-2-oxo-1,2-dihydropyridine-3-carboxylic acid] | 12.5 to 150 µg/mL (≈ 28.2 to 338 µM) | < 1 µg/mL | 3.5 to 12.5 µg/mL (≈ 7.89 to 28.2 µM) | 1 to 3.5 µg/mL (≈ 2.25 to 7.89 µM) |
| CCc1cc(C(=O)O)c(=O)[nH]c1-c1ccc2c(c1)cc(CNCc1ccccn1)n2C [Cpd 120, 5-ethyl-6-(1-methyl-2-((pyridin-2-ylmethylamino)methyl)-1H-indol-5-yl)-2-oxo-1,2-dihydropyridine-3-carboxylic acid] | 12.5 to 150 µg/mL (≈ 30 to 360 µM) | < 1 µg/mL | 3.5 to 12.5 µg/mL (≈ 8.4 to 30 µM) | < 1 µg/mL |
| CCc1cc(C(=O)O)c(=O)[nH]c1-c1ccc2c(c1)cc(CN1CC[C@H](N)C1)n2C [Cpd 126, (S)-6-(2-((3-aminopyrrolidin-1-yl)methyl)-1-methyl-1H-indol-5-yl)-5-ethyl-2-oxo-1,2-dihydropyridine-3-carboxylic acid] | 12.5 to 150 µg/mL (≈ 31.7 to 380 µM) | 3.5 to 12.5 µg/mL (≈ 8.87 to 31.7 µM) | 12.5 to 150 µg/mL (≈ 31.7 to 380 µM) | 12.5 to 150 µg/mL (≈ 31.7 to 380 µM) |
| CCc1cc(C(=O)O)c(=O)[nH]c1-c1ccc2c(c1)cc(CN1CCC(NC)C1)n2C (stereo not drawn) [Cpd 127, 5-ethyl-6-(1-methyl-2-((3-(methylamino)pyrrolidin-1-yl)methyl)-1H-indol-5-yl)-2-oxo-1,2-dihydropyridine-3-carboxylic acid] | 12.5 to 150 µg/mL (≈ 30.6 to 367 µM) | 1 to 3.5 µg/mL (≈ 2.45 to 8.57 µM) | 12.5 to 150 µg/mL (≈ 30.6 to 367 µM) | 12.5 to 150 µg/mL (≈ 30.6 to 367 µM) |
| CCc1cc(C(=O)O)c(=O)[nH]c1-c1ccc2c(c1)cc(CN1CCC(N(C)C)C1)n2C (stereo not drawn) [Cpd 128, 6-(2-((3-(dimethylamino)pyrrolidin-1-yl)methyl)-1-methyl-1H-indol-5-yl)-5-ethyl-2-oxo-1,2-dihydropyridine-3-carboxylic acid] | 12.5 to 150 µg/mL (≈ 29.6 to 355 µM) | < 1 µg/mL | 12.5 to 150 µg/mL (≈ 29.6 to 355 µM) | 1 to 3.5 µg/mL (≈ 2.37 to 8.28 µM) |
| CCc1cc(C(=O)O)c(=O)[nH]c1-c1ccc2c(c1)cc(CN1CCc3ccccc3C1)n2C [Cpd 134, 6-(2-((3,4-dihydroisoquinolin-2(1H)-yl)methyl)-1-methyl-1H-indol-5-yl)-5-ethyl-2-oxo-1,2-dihydropyridine-3-carboxylic acid] | 12.5 to 150 µg/mL (≈ 28.3 to 340 µM) | < 1 µg/mL | 3.5 to 12.5 µg/mL (≈ 7.93 to 28.3 µM) | 1 to 3.5 µg/mL (≈ 2.26 to 7.93 µM) |
| CCc1cc(C(=O)O)c(=O)[nH]c1-c1ccc2c(c1)cc(CN1Cc3cccnc3C1)n2C [Cpd 135, 6-(2-((5H-pyrrolo[3,4-b]pyridin-6(7H)-yl)methyl)-1-methyl-1H-indol-5-yl)-5-ethyl-2-oxo-1,2-dihydropyridine-3-carboxylic acid] | 12.5 to 150 µg/mL (≈ 29.2 to 350 µM) | < 1 µg/mL | 12.5 to 150 µg/mL (≈ 29.2 to 350 µM) | 3.5 to 12.5 µg/mL (≈ 8.17 to 29.2 µM) |
| CCc1cc(C(=O)O)c(=O)[nH]c1-c1ccc2c(c1)cc(CN1CC3CCCNC3C1)n2C (stereo not drawn) [Cpd 136, 5-ethyl-6-(1-methyl-2-((tetrahydro-1H-pyrrolo[3,4-b]pyridin-6(2H,7H,7aH)-yl)methyl)-1H-indol-5-yl)-2-oxo-1,2-dihydropyridine-3-carboxylic acid] | 12.5 to 150 µg/mL (≈ 28.8 to 345 µM) | 1 to 3.5 µg/mL (≈ 2.3 to 8.05 µM) | 12.5 to 150 µg/mL (≈ 28.8 to 345 µM) | 3.5 to 12.5 µg/mL (≈ 8.05 to 28.8 µM) |
| CCc1cc(C(=O)O)c(=O)[nH]c1-c1ccc2c(c1)cc(CN1C[C@@H](C)O[C@@H](C)C1)n2C [Cpd 138, 6-(2-((cis-2,6-dimethylmorpholino)methyl)-1-methyl-1H-indol-5-yl)-5-ethyl-2-oxo-1,2-dihydropyridine-3-carboxylic acid] | 12.5 to 150 µg/mL (≈ 29.5 to 354 µM) | < 1 µg/mL | 12.5 to 150 µg/mL (≈ 29.5 to 354 µM) | 3.5 to 12.5 µg/mL (≈ 8.26 to 29.5 µM) |
| CCc1cc(C(=O)O)c(=O)[nH]c1-c1ccc2c(c1)cc(CN1CCNCC1)n2C [Cpd 139, 5-ethyl-6-(1-methyl-2-(piperazin-1-ylmethyl)-1H-indol-5-yl)-2-oxo-1,2-dihydropyridine-3-carboxylic acid] | 12.5 to 150 µg/mL (≈ 31.7 to 380 µM) | 1 to 3.5 µg/mL (≈ 2.54 to 8.87 µM) | 12.5 to 150 µg/mL (≈ 31.7 to 380 µM) | 12.5 to 150 µg/mL (≈ 31.7 to 380 µM) |
| CCc1cc(C(=O)O)c(=O)[nH]c1-c1ccc2c(c1)cc(CN1CCN(C(C)C)CC1)n2C [Cpd 141, 5-ethyl-6-(2-((4-isopropylpiperazin-1-yl)methyl)-1-methyl-1H-indol-5-yl)-2-oxo-1,2-dihydropyridine-3-carboxylic acid] | 12.5 to 150 µg/mL (≈ 28.6 to 344 µM) | < 1 µg/mL | 12.5 to 150 µg/mL (≈ 28.6 to 344 µM) | 1 to 3.5 µg/mL (≈ 2.29 to 8.02 µM) |
| CCc1cc(C(=O)O)c(=O)[nH]c1-c1ccc2c(c1)cc(CN1CC3CC1CN3)n2C (stereo not drawn) [Cpd 142, 6-(2-(2,5-diazabicyclo[2.2.1]heptan-2-ylmethyl)-1-methyl-1H-indol-5-yl)-5-ethyl-2-oxo-1,2-dihydropyridine-3-carboxylic acid] | 12.5 to 150 µg/mL (≈ 30.8 to 369 µM) | 3.5 to 12.5 µg/mL (≈ 8.61 to 30.8 µM) | 12.5 to 150 µg/mL (≈ 30.8 to 369 µM) | 12.5 to 150 µg/mL (≈ 30.8 to 369 µM) |
| CCc1cc(C(=O)O)c(=O)[nH]c1-c1ccc2c(c1)cc(CN1C[C@@H]3[C@H](C1)[C@H]3N(Cc1ccccc1)Cc1ccccc1)n2C [Cpd 143, 6-(2-(((1R,5S,6s)-6-(dibenzylamino)-3-azabicyclo[3.1.0]hexan-3-yl)methyl)-1-methyl-1H-indol-5-yl)-5-ethyl-2-oxo-1,2-dihydropyridine-3-carboxylic acid] | 12.5 to 150 µg/mL (≈ 21.3 to 256 µM) | < 1 µg/mL | 3.5 to 12.5 µg/mL (≈ 5.97 to 21.3 µM) | 12.5 to 150 µg/mL (≈ 21.3 to 256 µM) |
| CCc1cc(C(=O)O)c(=O)[nH]c1-c1ccc2c(c1)cc(CN1CCN(C(C)=O)CC1)n2C [Cpd 144, 6-(2-((4-acetylpiperazin-1-yl)methyl)-1-methyl-1H-indol-5-yl)-5-ethyl-2-oxo-1,2-dihydropyridine-3-carboxylic acid] | 12.5 to 150 µg/mL (≈ 28.6 to 344 µM) | < 1 µg/mL | 12.5 to 150 µg/mL (≈ 28.6 to 344 µM) | 3.5 to 12.5 µg/mL (≈ 8.02 to 28.6 µM) |
| CCc1cc(C(=O)O)c(=O)[nH]c1-c1ccc2c(c1)cc(CN(C)C(C)=O)n2C [Cpd 145, 5-ethyl-6-(1-methyl-2-((N-methylacetamido)methyl)-1H-indol-5-yl)-2-oxo-1,2-dihydropyridine-3-carboxylic acid] | 12.5 to 150 µg/mL (≈ 32.8 to 393 µM) | < 1 µg/mL | 12.5 to 150 µg/mL (≈ 32.8 to 393 µM) | 3.5 to 12.5 µg/mL (≈ 9.18 to 32.8 µM) |
| CCc1cc(C(=O)O)c(=O)[nH]c1-c1ccc2c(c1)cc(CN1C[C@H]3CCC[C@@H](N(C)Cc4ccccc4)[C@H]3C1)n2C [Cpd 146, 6-(2-(((3aR,4R,7aS)-4-(benzyl(methyl)amino)-1H-isoindol-2(3H,3aH,4H,5H,6H,7H,7aH)-yl)methyl)-1-methyl-1H-indol-5-yl)-5-ethyl-2-oxo-1,2-dihydropyridine-3-carboxylic acid] | 12.5 to 150 µg/mL (≈ 22.6 to 271 µM) | < 1 µg/mL | 12.5 to 150 µg/mL (≈ 22.6 to 271 µM) | 1 to 3.5 µg/mL (≈ 1.81 to 6.33 µM) |
| CCc1cc(C(=O)O)c(=O)[nH]c1-c1ccc2c(c1)cc(CN1C[C@H]3CC[C@@H](N(C)C)[C@H]3C1)n2C [Cpd 147, 6-(2-(((3aR,4R,6aS)-4-(dimethylamino)hexahydrocyclopenta[c]pyrrol-2(1H)-yl)methyl)-1-methyl-1H-indol-5-yl)-5-ethyl-2-oxo-1,2-dihydropyridine-3-carboxylic acid] | 12.5 to 150 µg/mL (≈ 27 to 324 µM) | < 1 µg/mL | 12.5 to 150 µg/mL (≈ 27 to 324 µM) | < 1 µg/mL |
